Assay results taken from PubChem BioAssay (NCI).
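Cultured in 96-well plates, cells were exposed to test compound for 48 hours across five concentrations. TGI denotes the concentration required for complete inhibition of growth.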

Columns and labels:
Test in all cases: NCI anticancer screen, dose series, 48 h
HOP-62 NSCLC = tested on: HOP-62 NSCLC
LOX IMVI melanoma = tested on: LOX IMVI melanoma
KM12 colon = tested on: KM12 colon
HCC-2998 colon = tested on: HCC-2998 colon
SF-268 CNS = tested on: SF-268 CNS
SW-620 colon = tested on: SW-620 colon
MDA-N = tested on: MDA-N
COLO 205 colon = tested on: COLO 205 colon
CAKI-1 renal = tested on: CAKI-1 renal
MOLT-4 leukemia = tested on: MOLT-4 leukemia
OVCAR-3 ovarian = tested on: OVCAR-3 ovarian
A498 renal = tested on: A498 renal
HOP-92 NSCLC = tested on: HOP-92 NSCLC
MDA-MB-435 = tested on: MDA-MB-435
SN12C renal = tested on: SN12C renal
SNB-19 CNS = tested on: SNB-19 CNS
SK-MEL-2 melanoma = tested on: SK-MEL-2 melanoma
HCT-15 colon = tested on: HCT-15 colon
NCI-H226 lung = tested on: NCI-H226 lung
A549 NSCLC = tested on: A549 NSCLC
MALME-3M melanoma = tested on: MALME-3M melanoma
IGROV1 ovarian = tested on: IGROV1 ovarian
U251 CNS = tested on: U251 CNS
HT29 colon = tested on: HT29 colon
K-562 leukemia = tested on: K-562 leukemia
OVCAR-5 ovarian = tested on: OVCAR-5 ovarian
SR leukemia = tested on: SR leukemia
NCI/ADR-RES ovarian = tested on: NCI/ADR-RES ovarian
ACHN renal = tested on: ACHN renal
DU-145 prostate = tested on: DU-145 prostate
RXF 393 renal = tested on: RXF 393 renal
SK-OV-3 ovarian = tested on: SK-OV-3 ovarian
HL-60(TB) leukemia = tested on: HL-60(TB) leukemia
NCI-H522 lung = tested on: NCI-H522 lung
UO-31 renal = tested on: UO-31 renal
OVCAR-4 ovarian = tested on: OVCAR-4 ovarian
786-0 renal = tested on: 786-0 renal
MCF7 breast = tested on: MCF7 breast
CCRF-CEM leukemia = tested on: CCRF-CEM leukemia
SF-295 CNS = tested on: SF-295 CNS
NCI-H23 lung = tested on: NCI-H23 lung
NCI-H460 lung = tested on: NCI-H460 lung
UACC-257 melanoma = tested on: UACC-257 melanoma
M14 melanoma = tested on: M14 melanoma
TK-10 renal = tested on: TK-10 renal
PC-3 prostate = tested on: PC-3 prostate
UACC-62 melanoma = tested on: UACC-62 melanoma
OVCAR-8 ovarian = tested on: OVCAR-8 ovarian
HCT-116 colon = tested on: HCT-116 colon
SK-MEL-28 melanoma = tested on: SK-MEL-28 melanoma
MDA-MB-231 breast = tested on: MDA-MB-231 breast
EKVX NSCLC = tested on: EKVX NSCLC
SNB-75 CNS = tested on: SNB-75 CNS
SF-539 CNS = tested on: SF-539 CNS
T-47D breast = tested on: T-47D breast

Measured: TGI

O=c1[nH]c(=O)n(COCCOCc2ccccc2)cc1Nc1ccccc1
> 100 µM: HOP-62 NSCLC | LOX IMVI melanoma | KM12 colon | HCC-2998 colon | SF-268 CNS | SW-620 colon | MDA-N | COLO 205 colon | CAKI-1 renal | MOLT-4 leukemia | OVCAR-3 ovarian | A498 renal | HOP-92 NSCLC | MDA-MB-435 | SN12C renal | SNB-19 CNS | SK-MEL-2 melanoma | HCT-15 colon | NCI-H226 lung | A549 NSCLC | MALME-3M melanoma | IGROV1 ovarian | U251 CNS | HT29 colon | K-562 leukemia | OVCAR-5 ovarian | SR leukemia | NCI/ADR-RES ovarian | ACHN renal | DU-145 prostate | RXF 393 renal | SK-OV-3 ovarian | HL-60(TB) leukemia | NCI-H522 lung | UO-31 renal | OVCAR-4 ovarian | 786-0 renal | MCF7 breast | CCRF-CEM leukemia | SF-295 CNS | NCI-H23 lung | NCI-H460 lung | UACC-257 melanoma | M14 melanoma | TK-10 renal | PC-3 prostate | UACC-62 melanoma | OVCAR-8 ovarian | HCT-116 colon | SK-MEL-28 melanoma | MDA-MB-231 breast | EKVX NSCLC | SNB-75 CNS | SF-539 CNS | T-47D breast
